From article PMC3100199 (ACS medicinal chemistry letters, 2011)

Legend:
[1] = in vivo studies; cited from earlier work
PKD1 [2] = target: T1, PKD1 (Homo sapiens, UniProt Q15139); assay: PKD1 radiometric kinase activity assay; format: biochemical; conditions: ratio of in vitro IC50 vs CID755673
T1 sequence (Q15139 1-912): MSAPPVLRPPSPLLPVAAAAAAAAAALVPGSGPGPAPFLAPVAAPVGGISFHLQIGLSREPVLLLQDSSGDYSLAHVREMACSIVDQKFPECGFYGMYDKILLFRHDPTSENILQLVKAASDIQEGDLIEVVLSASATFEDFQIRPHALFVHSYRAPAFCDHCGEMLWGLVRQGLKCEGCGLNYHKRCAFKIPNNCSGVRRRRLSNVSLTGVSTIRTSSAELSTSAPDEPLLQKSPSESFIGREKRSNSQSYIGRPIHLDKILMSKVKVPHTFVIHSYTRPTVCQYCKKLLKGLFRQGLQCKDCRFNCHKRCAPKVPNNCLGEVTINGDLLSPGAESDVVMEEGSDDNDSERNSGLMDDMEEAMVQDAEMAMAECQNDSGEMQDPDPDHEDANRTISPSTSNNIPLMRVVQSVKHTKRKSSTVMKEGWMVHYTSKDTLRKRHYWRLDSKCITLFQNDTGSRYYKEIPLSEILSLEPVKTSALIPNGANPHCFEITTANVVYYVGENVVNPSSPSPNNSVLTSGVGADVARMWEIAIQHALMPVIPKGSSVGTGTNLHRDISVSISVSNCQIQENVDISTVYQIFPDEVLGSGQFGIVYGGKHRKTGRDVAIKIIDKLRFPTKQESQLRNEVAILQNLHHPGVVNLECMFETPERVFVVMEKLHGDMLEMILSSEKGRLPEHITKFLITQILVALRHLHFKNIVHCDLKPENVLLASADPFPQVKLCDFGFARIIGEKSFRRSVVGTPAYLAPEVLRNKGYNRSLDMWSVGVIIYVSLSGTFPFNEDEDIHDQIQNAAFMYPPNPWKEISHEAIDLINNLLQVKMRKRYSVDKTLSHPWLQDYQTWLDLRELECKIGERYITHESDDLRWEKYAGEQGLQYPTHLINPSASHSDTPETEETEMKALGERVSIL

[3] = target: T2, PKD1 autophosphorylation at S916 in LNCaP prostate cancer cells (Homo sapiens, UniProt Q15139); assay: Cellular PKD1 autophosphorylation at S916; format: cell-based; conditions: vs CID755673
T2 sequence (Q15139 1-912): T1 sequence (Q15139 1-912)

PKD1 [4] = target: T1, PKD1; conditions: PKD; cited from earlier work
PKCβI = PKCβI (Homo sapiens, UniProt P05771); assay: Selectivity assay against PKCβI; format: biochemical; conditions: selectivity counterscreen
Sequence of PKCβI (P05771 whole entry): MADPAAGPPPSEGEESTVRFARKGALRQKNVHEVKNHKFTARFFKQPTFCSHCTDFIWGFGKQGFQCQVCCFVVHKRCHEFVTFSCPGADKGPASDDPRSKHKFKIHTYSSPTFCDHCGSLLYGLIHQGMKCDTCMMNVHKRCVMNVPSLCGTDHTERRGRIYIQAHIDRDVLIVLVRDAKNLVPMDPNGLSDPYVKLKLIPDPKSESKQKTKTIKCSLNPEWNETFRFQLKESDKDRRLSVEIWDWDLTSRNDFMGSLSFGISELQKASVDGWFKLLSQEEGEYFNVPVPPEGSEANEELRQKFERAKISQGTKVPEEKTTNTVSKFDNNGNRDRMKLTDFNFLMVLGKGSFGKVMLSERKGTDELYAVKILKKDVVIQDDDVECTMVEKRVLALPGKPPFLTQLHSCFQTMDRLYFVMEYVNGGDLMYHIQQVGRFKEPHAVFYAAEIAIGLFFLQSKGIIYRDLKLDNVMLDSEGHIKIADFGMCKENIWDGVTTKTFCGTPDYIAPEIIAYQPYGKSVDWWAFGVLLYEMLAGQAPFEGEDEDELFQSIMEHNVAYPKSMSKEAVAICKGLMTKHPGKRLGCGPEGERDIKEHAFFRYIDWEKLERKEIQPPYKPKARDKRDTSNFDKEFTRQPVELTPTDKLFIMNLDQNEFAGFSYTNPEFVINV

PKCα = PKCα (Homo sapiens, UniProt P17252); assay: Selectivity assay against PKCα; format: biochemical; conditions: selectivity counterscreen
PKCδ = PKCδ (Homo sapiens, UniProt Q05655); assay: Selectivity assay against PKCδ; format: biochemical; conditions: selectivity counterscreen
Sequence of PKCδ (Q05655 whole entry): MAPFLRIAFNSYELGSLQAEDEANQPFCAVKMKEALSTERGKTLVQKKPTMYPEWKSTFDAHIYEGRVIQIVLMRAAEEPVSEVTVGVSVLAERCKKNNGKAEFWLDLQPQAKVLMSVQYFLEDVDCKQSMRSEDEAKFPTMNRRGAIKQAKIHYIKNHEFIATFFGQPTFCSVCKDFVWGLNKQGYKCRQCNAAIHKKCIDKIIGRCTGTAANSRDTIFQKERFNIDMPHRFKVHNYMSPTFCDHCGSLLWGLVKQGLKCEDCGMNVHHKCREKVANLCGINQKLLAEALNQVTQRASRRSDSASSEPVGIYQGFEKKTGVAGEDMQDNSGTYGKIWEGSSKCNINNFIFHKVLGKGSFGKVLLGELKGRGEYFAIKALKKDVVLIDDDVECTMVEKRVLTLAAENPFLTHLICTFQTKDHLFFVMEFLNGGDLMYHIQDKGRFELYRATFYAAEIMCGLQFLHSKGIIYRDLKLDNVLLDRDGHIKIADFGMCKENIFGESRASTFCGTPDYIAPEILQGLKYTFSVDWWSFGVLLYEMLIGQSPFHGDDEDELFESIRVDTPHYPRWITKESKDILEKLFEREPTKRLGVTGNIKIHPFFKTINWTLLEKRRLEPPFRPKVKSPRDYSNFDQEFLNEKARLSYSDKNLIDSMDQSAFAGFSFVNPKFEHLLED

Row | Compound | plasma half-life [1] | improvement in PKD1 in vitro potency over CID755673 (PKD1 [2]) | improvement (lowering) of cellular IC50 compared to CID755673 [3] | mode of inhibition (ATP competition) (PKD1 [4]) | activity against PKCβI (PKCβI) | activity against PKCα (PKCα) | activity against PKCδ (PKCδ)
1 | O=C1NCCSc2c1sc1ccc(O)cc21 [kb-NB142-70] | short plasma half-life | ~7 fold | 5 fold | – | – | – | –
2 | O=C1NCCCc2c1oc1ccc(O)cc21 [CID755673] | – | – | – | not an ATP-competitive inhibitor | – | – | –
3 | [N-]=[N+]=Nc1ccc2sc3c(c2c1)SCCNC3=O [mcf292-08] | – | – | – | – | did not detect significant activities | did not detect significant activities | did not detect significant activities
4 | O=C1NCCCc2c1[nH]c1ccc(O)cc21 [kb-NB123-57] | – | – | – | – | did not detect significant activities | did not detect significant activities | did not detect significant activities
5 | COc1ncc2sc3c(c2n1)SCCNC3=O [kmg-NB4-23] | – | – | – | – | did not detect significant activities | did not detect significant activities | did not detect significant activities
